The target of test [1] is Jak2 tyrosine kinase (Homo sapiens (Human), UniProt O60674). Put plainly: Jak2 Tyrosine Kinase Assay. It is filed as biochemical. The conditions noted are these: for pIC50: Jak2 1 nM, ATP 30 μM; for Ratio of Jak2/Btk IC50 values: selectivity for Btk over Jak2, larger value = more selective for Btk.
Test [2] addresses human recombinant Btk (Homo sapiens (Human), UniProt Q06187). Put plainly: Human Recombinant Btk Enzyme Assay. The conditions noted are these: human recombinant Btk 1 nM, ATP 20 μM. In kind it is biochemical.
Test [3] concerns CD69 expression on B cells in human whole blood. In words: Whole Blood Assays of BCR-Stimulated CD69 Expression on B Cells. In kind it is cell-based. The note with it: anti-human IgM + IL-4 stimulation, 18 h at 37° C.

pIC50: −log10 of the molar value.

Sequence of human recombinant Btk (Q06187 whole entry): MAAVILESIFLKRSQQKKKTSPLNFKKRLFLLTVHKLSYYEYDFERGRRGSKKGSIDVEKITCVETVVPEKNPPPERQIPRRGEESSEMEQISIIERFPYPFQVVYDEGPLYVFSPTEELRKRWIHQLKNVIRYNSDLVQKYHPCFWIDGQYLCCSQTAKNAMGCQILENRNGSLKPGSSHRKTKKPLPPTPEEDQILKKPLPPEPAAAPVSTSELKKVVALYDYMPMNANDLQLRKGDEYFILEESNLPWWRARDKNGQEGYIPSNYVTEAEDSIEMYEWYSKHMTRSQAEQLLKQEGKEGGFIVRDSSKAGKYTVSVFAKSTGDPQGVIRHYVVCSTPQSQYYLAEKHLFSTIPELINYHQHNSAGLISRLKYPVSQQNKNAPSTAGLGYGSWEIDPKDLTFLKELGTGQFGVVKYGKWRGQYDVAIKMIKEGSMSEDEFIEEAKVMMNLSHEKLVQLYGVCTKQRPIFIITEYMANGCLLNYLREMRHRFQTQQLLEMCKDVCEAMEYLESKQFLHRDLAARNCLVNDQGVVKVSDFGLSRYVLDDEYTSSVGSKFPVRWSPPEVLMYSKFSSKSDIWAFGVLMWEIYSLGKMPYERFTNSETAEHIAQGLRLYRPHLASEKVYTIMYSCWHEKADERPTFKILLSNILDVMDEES
Sequence of Jak2 tyrosine kinase (O60674 whole entry): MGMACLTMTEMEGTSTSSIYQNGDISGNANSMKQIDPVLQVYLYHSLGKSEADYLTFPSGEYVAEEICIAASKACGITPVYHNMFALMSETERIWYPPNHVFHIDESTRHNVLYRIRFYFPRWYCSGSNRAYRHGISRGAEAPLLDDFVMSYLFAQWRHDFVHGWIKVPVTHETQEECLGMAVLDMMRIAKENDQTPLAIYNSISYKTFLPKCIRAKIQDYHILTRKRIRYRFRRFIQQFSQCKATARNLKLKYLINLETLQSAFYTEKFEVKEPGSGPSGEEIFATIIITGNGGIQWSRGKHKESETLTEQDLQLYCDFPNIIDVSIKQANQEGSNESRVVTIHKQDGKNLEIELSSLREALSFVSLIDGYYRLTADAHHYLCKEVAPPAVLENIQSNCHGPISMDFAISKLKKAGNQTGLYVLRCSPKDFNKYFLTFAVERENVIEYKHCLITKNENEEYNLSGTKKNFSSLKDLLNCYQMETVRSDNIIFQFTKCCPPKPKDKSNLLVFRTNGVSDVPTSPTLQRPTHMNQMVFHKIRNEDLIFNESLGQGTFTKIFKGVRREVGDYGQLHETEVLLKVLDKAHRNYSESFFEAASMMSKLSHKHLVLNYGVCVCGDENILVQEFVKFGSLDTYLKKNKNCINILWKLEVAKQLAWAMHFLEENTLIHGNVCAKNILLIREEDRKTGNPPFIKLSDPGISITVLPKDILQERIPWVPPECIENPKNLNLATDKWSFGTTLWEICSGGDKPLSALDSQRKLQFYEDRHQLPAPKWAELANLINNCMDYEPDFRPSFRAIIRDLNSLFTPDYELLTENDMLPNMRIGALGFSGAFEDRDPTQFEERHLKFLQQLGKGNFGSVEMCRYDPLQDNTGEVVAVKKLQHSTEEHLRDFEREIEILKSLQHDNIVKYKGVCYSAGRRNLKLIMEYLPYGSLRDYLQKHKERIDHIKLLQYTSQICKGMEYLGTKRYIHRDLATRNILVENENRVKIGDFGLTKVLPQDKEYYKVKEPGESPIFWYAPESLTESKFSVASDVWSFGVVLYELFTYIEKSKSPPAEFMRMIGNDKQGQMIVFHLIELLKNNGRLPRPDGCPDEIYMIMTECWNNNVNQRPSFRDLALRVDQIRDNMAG

Consider `Cc1c(-c2ccc(C(N)=O)c3[nH]c4cc(C(C)(C)O)ccc4c23)cccc1-n1c(=O)cc2c(Cl)cccn2c1=O` [Example 13, 4-(3-(5-Chloro-1,3-dioxo-1H-pyrido[1,2-c]pyrimidin-2(3H)-yl)-2-methylphenyl)-7-(2-hydroxypropan-2-yl)-9H-carbazole-1-carboxamide], for which the pIC50 in test [1] was 5.89; in test [2], 9.03; in test [3], 6.92. Further, in test [1], the “Ratio of Jak2/Btk IC50 values” was found to be 1400.

As for `Cc1c(-c2ccc(C(N)=O)c3[nH]c4cc(C(C)(C)O)ccc4c23)cccc1-n1c(=O)[nH]c2c(F)cccc2c1=O` (single isomer, unassigned) [Example 1, 4-(3-(8-Fluoro-2,4-dioxo-1,2-dihydroquinazolin-3(4H)-yl)-2-methylphenyl)-7-(2-hydroxypropan-2-yl)-9H-carbazole-1-carboxamide], the pIC50 in test [1] is 5.92; in test [2], 8.82; in test [3] (Homo sapiens, B-cell, 18 h), 6.85. Moreover, the “Ratio of Jak2/Btk IC50 values” in test [1] was determined as 800.

Consider `Cc1c(-c2ccc(C(N)=O)c3[nH]c4cc(NC(=O)C(C)(C)C)ccc4c23)cccc1-n1c(=O)cc2c(Cl)cccn2c1=O` [Example 16, 4-(3-(5-Chloro-1,3-dioxo-1H-pyrido[1,2-c]pyrimidin-2(3H)-yl)-2-methylphenyl)-7-pivalamido-9H-carbazole-1-carboxamide], for which the pIC50 in test [1] was 5.66; in test [2] it was 8.68; in test [3] (B-cell) it was 6.66. In addition, the “Ratio of Jak2/Btk IC50 values” in test [1] is listed as 1000.

Turning to `Cc1c(-c2ccc(C(N)=O)c3[nH]c4c(C)c(C(C)(C)O)ccc4c23)cccc1-n1c(=O)c2cccc(F)c2n(C)c1=O` (atropisomer, axis not shown) [Example 26, 4-(3-(S)-(8-Fluoro-1-methyl-2,4-dioxo-1,2-dihydroquinazolin-3(4H)-yl)-2-methylphenyl)-7-(2-hydroxypropan-2-yl)-8-methyl-9H-carbazole-1-carboxamide], the pIC50 in test [1] was less than 5.70; in test [2], 9.08; in test [3] (B-cell) it was 6.70. The “Ratio of Jak2/Btk IC50 values” in test [1] is on record as more than 2400.

On to `Cc1c(-c2ccc(C(N)=O)c3[nH]c4cc(C(C)(C)O)ccc4c23)cccc1-n1c(=O)cc2c(Cl)cccn2c1=O` (atropisomer, axis not shown) [Example 15, 4-(3-(S)-(5-Chloro-1,3-dioxo-1H-pyrido[1,2-c]pyrimidin-2(3H)-yl)-2-methylphenyl)-7-(2-hydroxypropan-2-yl)-9H-carbazole-1-carboxamide], for which the pIC50 in test [1] was 6.00; in test [2], 9.39; in test [3], 7.23. For the same molecule, in test [1], the “Ratio of Jak2/Btk IC50 values” came to 2400.

In the case of `COc1cccc2c(=O)n(-c3cccc(-c4ccc(C(N)=O)c5[nH]c6cc(C(C)(C)O)ccc6c45)c3C)c(=O)n(C)c12` [Example 7, 7-(2-Hydroxypropan-2-yl)-4-(3-(8-methoxy-1-methyl-2,4-dioxo-1,2-dihydroquinazolin-3(4H)-yl)-2-methylphenyl)-9H-carbazole-1-carboxamide], the pIC50 in test [1] is 5.89; in test [2], 8.77; in test [3] (B-cell), 6.66. In addition, in test [1], the “Ratio of Jak2/Btk IC50 values” is 760.

With `Cc1c(-c2ccc(C(N)=O)c3[nH]c4cc(C(C)(C)O)ccc4c23)cccc1-n1c(=O)cc2c(F)cccn2c1=O` [Example 23, 4-(3-(5-Fluoro-1,3-dioxo-1H-pyrido[1,2-c]pyrimidin-2(3H)-yl)-2-methylphenyl)-7-(2-hydroxypropan-2-yl)-9H-carbazole-1-carboxamide], the pIC50 was 6.00 in test [1], 8.92 in test [2] and 7.10 in test [3]. For the same molecule, in test [1], the “Ratio of Jak2/Btk IC50 values” is given as 830.

For the molecule `Cc1c(-c2ccc(C(N)=O)c3[nH]c4cc(CO)ccc4c23)cccc1-n1c(=O)cc2c(F)cccn2c1=O` [Example 28, 4-(3-(5-fluoro-1,3-dioxo-1H-pyrido[1,2-c]pyrimidin-2(3H)-yl)-2-methylphenyl)-7-(hydroxymethyl)-9H-carbazole-1-carboxamide], the values for the pIC50 in test [1], in test [2] and in test [3] (B-cell) were 6.10, 8.82 and 7.06, respectively. Moreover, the “Ratio of Jak2/Btk IC50 values” in test [1] is given as 530.

With `Cc1c(-c2ccc(C(N)=O)c3[nH]c4cc(C(C)(C)O)ccc4c23)cccc1-n1c(=O)[nH]c2c(F)cccc2c1=O` (single isomer, unassigned) [Example 2, 4-(3-(8-Fluoro-2,4-dioxo-1,2-dihydroquinazolin-3(4H)-yl)-2-methylphenyl)-7-(2-hydroxypropan-2-yl)-9H-carbazole-1-carboxamide], the pIC50 in test [1] is 6.07; in test [2], 8.62; in test [3], 6.70. Further, the “Ratio of Jak2/Btk IC50 values” in test [1] turned out to be 350.

Turning to `Cc1c(-c2ccc(C(N)=O)c3[nH]c4c(F)c(C(C)(C)O)ccc4c23)cccc1-n1c(=O)c2cccc(F)c2n(C)c1=O` [Example 33, 8-fluoro-4-(3-(8-fluoro-1-methyl-2,4-dioxo-1,2-dihydroquinazolin-3(4H)-yl)-2-methylphenyl)-7-(2-hydroxypropan-2-yl)-9H-carbazole-1-carboxamide], the values for the negative-log IC50 (pIC50) in test [1], in test [2] and in test [3] (B-cell) were 6.65, 9.40 and 6.60, respectively. For the same molecule, the “Ratio of Jak2/Btk IC50 values” in test [1] was 540.

With “4-(3-(S)-(8-Fluoro-1-methyl-2,4-dioxo-1,2-dihydroquinazolin-3(4H)-yl)-2-methylphenyl)-7-(2-hydroxypropan-2-yl)-5-methyl-9H-carbazole-1-carboxamide [Example 24]”, the pIC50 is less than 5.70 in test [1], 9.23 in test [2] and 6.80 in test [3]. Also, in test [1], the “Ratio of Jak2/Btk IC50 values” was more than 3400.

As for `Cc1c(-c2ccc(C(N)=O)c3[nH]c4cc(C(C)(C)O)cc(C)c4c23)cccc1-n1c(=O)c2cccc(F)c2n(C)c1=O` (single isomer, unassigned) [Example 25], the figures for the pIC50 in test [1], in test [2] and in test [3] (B-cell) were 5.34, 9.15 and 7.16, respectively. Besides, the “Ratio of Jak2/Btk IC50 values” in test [1] turned out to be 6600.

As for `Cn1c(=O)n(-c2cccc(-c3ccc(C(N)=O)c4[nH]c5cc(C(C)(C)O)ccc5c34)c2Cl)c(=O)c2ccccc21` [Example 6, 4-(2-Chloro-3-(1-methyl-2,4-dioxo-1,2-dihydroquinazolin-3(4H)-yl)phenyl)-7-(2-hydroxypropan-2-yl)-9H-carbazole-1-carboxamide], the pIC50 in test [1] is 5.74; in test [2], 8.28; in test [3] (B-cell) it was 6.82. Moreover, in test [1], the “Ratio of Jak2/Btk IC50 values” is recorded as 340.

Turning to `Cc1c(-c2ccc(C(N)=O)c3[nH]c4cc(C(C)(C)O)ccc4c23)cccc1-n1c(=O)ccn(-c2ccc(F)cc2)c1=O` [Example 9, 4-(3-(3-(4-Fluorophenyl)-2,6-dioxo-2,3-dihydropyrimidin-1(6H)-yl)-2-methylphenyl)-7-(2-hydroxypropan-2-yl)-9H-carbazole-1-carboxamide], the pIC50 in test [1] is 6.00; in test [2] it was 8.66; in test [3] (B-cell), 6.68. Moreover, the “Ratio of Jak2/Btk IC50 values” in test [1] turned out to be 450.

For `CC(=O)NCc1ccc2c(c1)[nH]c1c(C(N)=O)ccc(-c3cccc(-n4c(=O)cc5c(F)cccn5c4=O)c3C)c12` [Example 30, 7-(acetamidomethyl)-4-(3-(5-fluoro-1,3-dioxo-1H-pyrido[1,2-c]pyrimidin-2(3H)-yl)-2-methylphenyl)-9H-carbazole-1-carboxamide], the values for the pIC50 in test [1], in test [2] and in test [3] (B-cell) were 6.37, 8.92 and 6.89, respectively. Moreover, the “Ratio of Jak2/Btk IC50 values” in test [1] was found to be 360.

Take `COc1cccn2c(=O)n(-c3cccc(-c4ccc(C(N)=O)c5[nH]c6cc(C(C)(C)O)ccc6c45)c3C)c(=O)cc12` [Example 12, 7-(2-Hydroxypropan-2-yl)-4-(3-(5-methoxy-1,3-dioxo-1H-pyrido[1,2-c]pyrimidin-2(3H)-yl)-2-methylphenyl)-9H-carbazole-1-carboxamide]: the pIC50 in test [1] was 6.01; in test [2] it was 9.28; in test [3] (B-cell), 6.85. For the same molecule, the “Ratio of Jak2/Btk IC50 values” in test [1] is on record as 1900.

As for `COCc1ccc2c(c1)[nH]c1c(C(N)=O)ccc(-c3cccc(-n4c(=O)cc5c(F)cccn5c4=O)c3C)c12` [Example 18, 4-(3-(5-Fluoro-1,3-dioxo-1H-pyrido[1,2-c]pyrimidin-2(3H)-yl)-2-methylphenyl)-7-(methoxymethyl)-9H-carbazole-1-carboxamide], the values for the pIC50 in test [1], in test [2] and in test [3] (B-cell) were 6.13, 8.64 and 6.89, respectively. The “Ratio of Jak2/Btk IC50 values” in test [1] is listed as 320.

Regarding `Cn1c(=O)n(-c2cccc(-c3ccc(C(N)=O)c4[nH]c5cc(C(C)(C)O)ccc5c34)c2Cl)c(=O)c2cccc(F)c21` [Example 5, 4-(2-Chloro-3-(8-fluoro-1-methyl-2,4-dioxo-1,2-dihydroquinazolin-3(4H)-yl)phenyl)-7-(2-hydroxypropan-2-yl)-9H-carbazole-1-carboxamide], the pIC50 in test [1] is 5.92; in test [2], 9.05; in test [3] (B-cell), 6.74. Besides, the “Ratio of Jak2/Btk IC50 values” in test [1] was 1300.

The values are drawn from US9714234B2, “Carbazole carboxamide compounds” (Bristol-Myers Squibb Company, priority 2013, dated 2017).
